Results as given in US20210070748A1, “INHIBITORS OF BRUTONS TYROSINE KINASE” (Pharmacyclics LLC, priority 2015, published 2021).
Like-named read-outs stand apart in the source and are kept apart here.

Key:
Format in all cases: biochemical
TEC = biological target: T1, TEC (Homo sapiens, UniProt P42680); assay: Inhibition of a panel of kinases, in vitro HotSpot kinase assay: TEC
T1 sequence (P42680 1-631): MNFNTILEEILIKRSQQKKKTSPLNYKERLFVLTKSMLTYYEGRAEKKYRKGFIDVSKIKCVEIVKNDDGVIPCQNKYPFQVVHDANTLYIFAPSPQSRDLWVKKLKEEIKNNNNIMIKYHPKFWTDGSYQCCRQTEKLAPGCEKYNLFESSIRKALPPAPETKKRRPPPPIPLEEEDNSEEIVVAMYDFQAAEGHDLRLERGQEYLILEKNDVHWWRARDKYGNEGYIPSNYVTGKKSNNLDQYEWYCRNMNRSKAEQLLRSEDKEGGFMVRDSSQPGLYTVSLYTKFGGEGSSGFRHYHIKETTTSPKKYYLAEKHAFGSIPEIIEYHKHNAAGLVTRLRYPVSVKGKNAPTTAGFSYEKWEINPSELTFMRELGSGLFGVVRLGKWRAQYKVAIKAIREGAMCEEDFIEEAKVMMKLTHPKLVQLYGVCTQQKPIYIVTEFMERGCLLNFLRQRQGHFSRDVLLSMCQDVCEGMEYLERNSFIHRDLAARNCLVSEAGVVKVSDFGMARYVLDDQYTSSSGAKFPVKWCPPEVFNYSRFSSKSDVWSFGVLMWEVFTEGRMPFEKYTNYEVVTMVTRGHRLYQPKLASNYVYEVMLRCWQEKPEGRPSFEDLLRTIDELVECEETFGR
Experimental: (§1) The degree of inhibition of a panel of kinases is determined using the in vitro HotSpot kinase assay (purified enzymes, ^33P-ATP, an appropriate substrate and 1 μM ATP).

EGFR = EGFR (Homo sapiens, UniProt P00533); assay: Inhibition of a panel of kinases, in vitro HotSpot kinase assay: EGFR
Experimental: as §1

ITK = biological target: T2, ITK (Homo sapiens, UniProt Q08881); assay: Inhibition of a panel of kinases, in vitro HotSpot kinase assay: ITK
T2 sequence (Q08881 1-620): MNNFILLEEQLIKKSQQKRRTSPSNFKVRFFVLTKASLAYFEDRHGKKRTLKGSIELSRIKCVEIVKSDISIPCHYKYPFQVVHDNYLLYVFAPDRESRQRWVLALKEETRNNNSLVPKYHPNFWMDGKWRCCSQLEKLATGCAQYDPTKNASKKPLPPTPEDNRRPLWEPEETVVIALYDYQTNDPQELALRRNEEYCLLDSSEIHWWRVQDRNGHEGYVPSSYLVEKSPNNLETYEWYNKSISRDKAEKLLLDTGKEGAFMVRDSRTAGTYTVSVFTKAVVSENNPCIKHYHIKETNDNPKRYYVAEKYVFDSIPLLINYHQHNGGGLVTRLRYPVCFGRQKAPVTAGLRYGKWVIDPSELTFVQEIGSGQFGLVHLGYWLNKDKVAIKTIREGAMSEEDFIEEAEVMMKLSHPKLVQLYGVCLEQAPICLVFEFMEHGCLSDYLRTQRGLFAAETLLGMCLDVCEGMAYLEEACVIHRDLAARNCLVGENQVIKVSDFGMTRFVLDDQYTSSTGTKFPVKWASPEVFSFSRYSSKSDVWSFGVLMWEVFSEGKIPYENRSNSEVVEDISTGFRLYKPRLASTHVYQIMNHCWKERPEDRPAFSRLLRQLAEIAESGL
Experimental: as §1

LCK = LCK (Homo sapiens, UniProt P06239); assay: Inhibition of a panel of kinases, in vitro HotSpot kinase assay: LCK; settings: read-out: IC50 LCK
[1] = D-compounds panel data, 1 μM ATP

EGFR, sequence (P00533 25-1210): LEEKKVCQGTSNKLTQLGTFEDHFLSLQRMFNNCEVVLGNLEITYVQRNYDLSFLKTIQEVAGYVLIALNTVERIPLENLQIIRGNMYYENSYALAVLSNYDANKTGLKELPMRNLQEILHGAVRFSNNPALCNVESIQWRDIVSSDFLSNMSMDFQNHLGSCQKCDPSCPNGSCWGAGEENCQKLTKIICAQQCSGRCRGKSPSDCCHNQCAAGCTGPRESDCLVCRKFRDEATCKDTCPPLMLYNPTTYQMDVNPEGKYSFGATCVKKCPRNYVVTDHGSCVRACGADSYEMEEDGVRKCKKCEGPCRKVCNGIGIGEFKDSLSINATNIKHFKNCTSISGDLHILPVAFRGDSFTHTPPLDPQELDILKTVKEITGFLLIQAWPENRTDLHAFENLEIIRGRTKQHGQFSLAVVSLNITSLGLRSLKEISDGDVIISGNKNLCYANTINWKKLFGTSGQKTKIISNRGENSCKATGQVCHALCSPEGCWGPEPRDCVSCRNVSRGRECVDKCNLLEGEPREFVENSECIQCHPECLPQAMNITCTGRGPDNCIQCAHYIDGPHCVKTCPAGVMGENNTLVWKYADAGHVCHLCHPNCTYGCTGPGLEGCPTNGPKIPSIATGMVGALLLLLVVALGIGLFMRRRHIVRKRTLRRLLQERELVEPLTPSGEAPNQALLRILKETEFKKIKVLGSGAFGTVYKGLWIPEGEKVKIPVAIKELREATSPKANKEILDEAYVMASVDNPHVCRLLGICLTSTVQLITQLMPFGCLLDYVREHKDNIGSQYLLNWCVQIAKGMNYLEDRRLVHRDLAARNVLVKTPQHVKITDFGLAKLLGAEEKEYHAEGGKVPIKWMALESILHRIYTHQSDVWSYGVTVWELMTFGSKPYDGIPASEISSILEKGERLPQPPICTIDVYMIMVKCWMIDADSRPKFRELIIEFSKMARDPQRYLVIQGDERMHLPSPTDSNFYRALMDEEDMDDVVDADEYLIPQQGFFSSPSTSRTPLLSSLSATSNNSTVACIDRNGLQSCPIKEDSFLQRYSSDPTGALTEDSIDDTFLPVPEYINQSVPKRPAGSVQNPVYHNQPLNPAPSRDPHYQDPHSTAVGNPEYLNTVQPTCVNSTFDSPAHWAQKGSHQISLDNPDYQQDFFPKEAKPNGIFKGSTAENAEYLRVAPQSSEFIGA
LCK, sequence (P06239 whole entry): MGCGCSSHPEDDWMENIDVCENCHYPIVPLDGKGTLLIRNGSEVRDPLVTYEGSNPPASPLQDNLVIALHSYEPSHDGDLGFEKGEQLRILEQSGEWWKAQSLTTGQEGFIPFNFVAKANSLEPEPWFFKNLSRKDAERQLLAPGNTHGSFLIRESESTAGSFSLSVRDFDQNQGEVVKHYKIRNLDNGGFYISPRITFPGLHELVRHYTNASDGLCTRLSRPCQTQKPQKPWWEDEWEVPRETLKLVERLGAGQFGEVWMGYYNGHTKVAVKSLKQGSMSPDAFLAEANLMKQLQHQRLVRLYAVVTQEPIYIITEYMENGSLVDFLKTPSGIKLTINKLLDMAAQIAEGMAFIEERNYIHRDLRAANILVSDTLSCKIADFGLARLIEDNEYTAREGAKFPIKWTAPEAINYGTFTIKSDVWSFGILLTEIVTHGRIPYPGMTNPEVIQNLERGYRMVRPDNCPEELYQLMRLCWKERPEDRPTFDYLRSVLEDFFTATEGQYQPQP

IC50 (TEC; [1])	IC50 (EGFR; [1])	IC50 (ITK; [1])	IC50 (LCK; [1])	SMILES	IC50 (TEC; E compounds, Table 17)	IC50 (EGFR; E compounds, Table 17)	IC50 (ITK; E compounds, Table 17)	IC50 (LCK; E compounds, Table 17)
0.1 to 1 µM	> 10 µM	1 to 10 µM	> 10 µM	Cc1ncc(Nc2nc(N3CCC[C@@H](NC(=O)c4ccc(C5CC5)cc4F)C3)cnc2C(N)=O)s1 [Example D-4, 5-[(3R)-3-(4-cyclopropyl-2-fluorobenzamido)piperidin-1-yl]-3-[(2-methyl-1,3-thiazol-5-yl)amino]pyrazine-2-carboxamide]	–	–	–	–
0.01 to 0.1 µM	0.1 to 1 µM	0.1 to 1 µM	0.01 to 0.1 µM	C[C@@H]1[C@H](NC(=O)c2ccc(C3CC3)cc2F)CCCN1c1cnc(C(N)=O)c(Nc2ccc(N3CCN(C)CC3)c(F)c2)n1 [Example D-82, 5-[(2R,3R)-3-(4-cyclopropyl-2-fluorobenzamido)-2-methylpiperidin-1-yl]-3-{[3-fluoro-4-(4-methylpiperazin-1-yl)phenyl]amino}pyrazine-2-carboxamide]	–	–	–	–
0.01 to 0.1 µM	0.1 to 1 µM	0.1 to 1 µM	0.1 to 1 µM	C[C@@H]1[C@H](NC(=O)c2ccc(C(F)(F)F)cn2)CCCN1c1cnc(C(N)=O)c(Nc2cnn(C)c2)n1 [Example D-87, 3-[(1-methyl-1H-pyrazol-4-yl)amino]-5-[(2R,3R)-2-methyl-3-[5-(trifluoromethyl)pyridine-2-amido]piperidin-1-yl]pyrazine-2-carboxamide]	–	–	–	–
0.01 to 0.1 µM	1 to 10 µM	1 to 10 µM	0.1 to 1 µM	CC(C)n1ccc(C(=O)N[C@@H]2CCCN(c3cnc(C(N)=O)c(Nc4cnn(C)c4)n3)[C@@H]2C)cc1=O [Example D-35, 3-[(1-methyl-1H-pyrazol-4-yl)amino]-5-[(2R,3R)-2-methyl-3-[2-oxo-1-(propan-2-yl)-1,2-dihydropyridine-4-amido]piperidin-1-yl]pyrazine-2-carboxamide]	–	–	–	–
≤ 0.01 µM	0.1 to 1 µM	0.1 to 1 µM	0.01 to 0.1 µM	CC1COc2cc(C(=O)N[C@@H]3CCCN(c4cnc(C(N)=O)c(Nc5cnn(C)c5)n4)[C@@H]3C)ccc2C1 (stereo partly drawn) [Example D-56, 3-[(1-methyl-1H-pyrazol-4-yl)amino]-5-[(2R,3R)-2-methyl-3-(3-methyl-3,4-dihydro-2H-1-benzopyran-7-amido)piperidin-1-yl]pyrazine-2-carboxamide]	–	–	–	–
≤ 0.01 µM	1 to 10 µM	0.1 to 1 µM	0.1 to 1 µM	C[C@@H]1[C@H](NC(=O)c2ccc(C3CC3)cc2)CCCN1c1cnc(C(N)=O)c(Nc2cnn(CC3CCOCC3)c2)n1 [Example D-319, 5-[(2R,3R)-3-(4-cyclopropylbenzamido)-2-methylpiperidin-1-yl]-3-{[1-(oxan-4-ylmethyl)-1H-pyrazol-4-yl]amino}pyrazine-2-carboxamide]	–	–	–	–
0.01 to 0.1 µM	> 10 µM	1 to 10 µM	1 to 10 µM	C[C@@H]1[C@H](NC(=O)c2ccc(C3CC3)cc2)CCCN1c1cnc(C(N)=O)c(Nc2ccc3nccn3c2)n1 [Example D-83, 5-[(2R,3R)-3-(4-cyclopropylbenzamido)-2-methylpiperidin-1-yl]-3-({imidazo[1,2-a]pyridin-6-yl}amino)pyrazine-2-carboxamide]	–	–	–	–
0.01 to 0.1 µM	0.1 to 1 µM	0.01 to 0.1 µM	0.01 to 0.1 µM	C[C@@H]1[C@H](NC(=O)N(C)C)CCCN1c1cnc(C(N)=O)c(Nc2ccc(OC3CCN(C)CC3)cc2)n1 [Example D-33, 5-[(2R,3R)-3-[(dimethylcarbamoyl)amino]-2-methylpiperidin-1-yl]-3-({4-[(1-methylpiperidin-4-yl)oxy]phenyl}amino)pyrazine-2-carboxamide]	–	–	–	–

Further lines, the molecule ahead of its results:

SMILES	IC50 (TEC; [1])	IC50 (EGFR; [1])	IC50 (ITK; [1])	IC50 (LCK; [1])	IC50 (TEC; E compounds, Table 17)	IC50 (EGFR; E compounds, Table 17)	IC50 (ITK; E compounds, Table 17)	IC50 (LCK; E compounds, Table 17)
CN1CCN(C(=O)c2ccc(Nc3nc(N[C@H]4CC[C@H](NC(=O)c5ccc(C6CC6)cc5F)CC4)cnc3C(N)=O)cc2)CC1 [Example D-70, 3-{[4-(4-methylpiperazine-1-carbonyl)phenyl]amino}-5-{[(1 r,4r)-4-(4-cyclopropyl-2-fluorobenzamido)cyclohexyl]amino}pyrazine-2-carboxamide]	0.1 to 1 µM	0.1 to 1 µM	0.1 to 1 µM	0.1 to 1 µM	–	–	–	–
C[C@@H]1[C@H](NC(=O)c2ccc(C(C)(C)O)nc2)CCCN1c1cnc(C(N)=O)c(Nc2cnn(C)c2)n1 [Example D-40, 5-[(2R,3R)-3-[6-(2-hydroxypropan-2-yl)pyridine-3-amido]-2-methylpiperidin-1-yl]-3-[(1-methyl-1H-pyrazol-4-yl)amino]pyrazine-2-carboxamide]	≤ 0.01 µM	0.1 to 1 µM	0.1 to 1 µM	0.01 to 0.1 µM	–	–	–	–
C=CC(=O)N1CC[C@@H](N(C)c2cnc(C(N)=O)c(Nc3ccc(C4(C)CCN(C5CC5)CC4)cc3)n2)C1 [Example E-104, (R)-5-((1-acryloylpyrrolidin-3-yl)(methyl)amino)-3-(4-(1-cyclopropyl-4-methylpiperidin-4-yl)phenylammo)pyrazine-2-carboxamide]	–	–	–	–	≤ 0.01 µM	≤ 0.01 µM	≤ 0.01 µM	0.01 to 0.1 µM
C[C@@H]1[C@H](NC(=O)c2ccc(C3CC3)cc2)CCCN1c1cnc(C(N)=O)c(Nc2ccc(OC(F)(F)F)cc2)n1 [Example D-42, 5-[(2R,3R)-3-(4-cyclopropylbenzamido)-2-methylpiperidin-1-yl]-3-{[4-(trifluoromethoxy)phenyl]amino}pyrazine-2-carboxamide]	0.1 to 1 µM	> 10 µM	> 10 µM	> 10 µM	–	–	–	–
Cn1cc(Nc2nc(N3CCC[C@H]4[C@@H]3CCN4C(=O)c3ccc(C4CC4)cc3)cnc2C(N)=O)cn1 [Example D-45, 5-[(3aS,7aS)-1-(4-cyclopropylbenzoyl)-octahydro-1H-pyrrolo[3,2-b]pyridin-4-yl]-3-[(1-methyl-1H-pyrazol-4-yl)amino]pyrazine-2-carboxamide]	0.1 to 1 µM	> 10 µM	1 to 10 µM	0.1 to 1 µM	–	–	–	–
C[C@@H]1[C@H](NC(=O)N(C)C)CCCN1c1cnc(C(N)=O)c(Nc2ccc(N3CCN(C)CC3)cc2F)n1 [Example D-52, 5-[(2R,3R)-3-[(dimethylcarbamoyl)amino]-2-methylpiperidin-1-yl]-3-{[2-fluoro-4-(4-methylpiperazin-1-yl)phenyl]amino}pyrazine-2-carboxamide]	0.1 to 1 µM	1 to 10 µM	0.1 to 1 µM	1 to 10 µM	–	–	–	–
C[C@@H]1[C@H](N2CCN(C)C2=O)CCCN1c1cnc(C(N)=O)c(Nc2ccc(C3(C)CCN(C4CC4)CC3)cc2)n1 [Example D-38, 3-{[4-(1-cyclopropyl-4-methylpiperidin-4-yl)phenyl]amino}-5-[(2R,3R)-2-methyl-3-(3-methyl-2-oxoimidazolidin-1-yl)piperidin-1-yl]pyrazine-2-carboxamide]	0.01 to 0.1 µM	0.1 to 1 µM	0.01 to 0.1 µM	0.01 to 0.1 µM	–	–	–	–
C[C@@H]1[C@H](NC(=O)c2ccc(-c3ncccn3)cc2)CCCN1c1cnc(C(N)=O)c(Nc2cnn(C)c2)n1 [Example D-85, 3-[(1-methyl-1H-pyrazol-4-yl)amino]-5-[(2R,3R)-2-methyl-3-[4-(pyrimidin-2-yl)benzamido]piperidin-1-yl]pyrazine-2-carboxamide]	≤ 0.01 µM	0.1 to 1 µM	0.1 to 1 µM	0.1 to 1 µM	–	–	–	–
Cc1cc(Nc2nc(N3C[C@@H](NC(=O)c4ccc(C5CC5)cc4F)CC[C@H]3C)cnc2C(N)=O)sn1 [Example D-80, 5-[(2R,5S)-5-(4-cyclopropyl-2-fluorobenzamido)-2-methylpiperidin-1-yl]-3-[(3-methyl-1,2-thiazol-5-yl)amino]pyrazine-2-carboxamide]	1 to 10 µM	0.1 to 1 µM	> 10 µM	0.1 to 1 µM	–	–	–	–
